Here are results for 18 compounds from patent EP2298778A1, “IMIDAZOTHIAZOLE DERIVATIVE HAVING 4,7-DIAZASPIROÝ2.5¨OCTANE RING STRUCTURE” (Daiichi Sankyo Company, Limited, priority 2008, dated 2009).

The data set can be described thus: Metabolic stability test (microsomal metabolism test). The note with it: pH 7.4; human-derived liver microsomes, test compound remaining after addition of NADP+ and incubation at 37°C for 30 minutes; read-out: metabolic stability of T/C%. The format is in vitro ADME. Here is the method: (Test Example 3 Metabolic stability test) 100 µL of 100 mM phosphate buffer solution (pH 7.4) containing 3 µM test compound was added to 100 µL of reaction solution containing 100 mM phosphate buffer solution (pH 7.4), 30 mM glucose 6-phosphate, 10 mM MgCl2·6H2O, 3 units/mL glucose 6-phosphate 1-dehydrogenase, and 0.3 to 1.5 mgP/mL human liver microsomes and the mixture was incubated at 37°C for 20 minutes. Then, 70 µL of 100 mM phosphate buffer solution (pH 7.4) containing 3 mM NADP^+ was added and the mixture was incubated at 37°C for 30 minutes to conduct a microsomal metabolism test. The metabolic stability was calculated according to the following formula: T/C (%) = ((concentration of test compound after addition of NADP)^+and incubation for30minutes)/((concentration of test compound before addition of NADP)^+) × 100. [formula] […]
Consider `CC(C)C1=C(C(=O)N2[C@H](C)CC[C@H]2C(=O)N2CC3(CC3)N(C)C[C@@H]2C)SC2=N[C@@](C)(c3ccc(Cl)nc3)[C@@H](c3ccc(Cl)c(F)c3)N21` [Example 22, (6S)-7-[(5R)-1-{[(5R,6S)-5-(4-chloro-3-fluorophenyl)-6-(6-chloropyridin-3-yl)-3-isopropyl-6-methyl-5,6-dihydroimidazo[2,1-b][1,3]thiazol-2-yl]carbonyl}-5-methyl-L-prolyl]-4,6-dimethyl-4,7-diazaspiro[2.5]octane], for which the remaining at 0.5 h is ≥ 50%.
For the compound `CC(C)C1=C(C(=O)N2[C@H](C)CC[C@H]2C(=O)N2CC3(CC3)NC[C@H]2C)SC2=N[C@@](C)(c3ccc(Cl)nc3)[C@@H](c3ccc(Cl)c(F)c3)N21` [Example 23, (6R)-7-[(5R)-1-{ [(5R,6S)-5-(4-chloro-3-fluorophenyl)-6-(6-chloropyridin-3-yl)-3-isopropyl-6-methyl-5,6-dihydroimidazo[2,1-b][1,3]thiazol-2-yl]carbonyl}-5-methyl-L-prolyl]-6-methyl-4,7-diazaspiro[2.5]octane], the remaining at 0.5 h was ≥ 50%.
The value for `CC(C)C1=C(C(=O)N2[C@H](C)CC[C@H]2C(=O)N2CC3(CC3)N(C)C[C@H]2C)SC2=N[C@@](C)(c3ccc(Cl)nc3)[C@@H](c3ccc(Cl)c(F)c3)N21` [Example 24, (6R)-7-[(5R)-1-{[(5R,6S)-5-(4-chloro-3-fluorophenyl)-6-(6-chloropyridin-3-yl)-3-isopropyl-6-methyl-5,6-dihydroimidazo[2,1-b][1,3]thiazol-2-yl]carbonyl}-5-methyl-L-prolyl]-4,6-dimethyl-4,7-diazaspiro[2.5]octane] was ≥ 50%.
In the case of `CC(C)C1=C(C(=O)N2[C@H](C)CC[C@H]2C(=O)N2CCNC3(CC3)C2)SC2=N[C@@](C)(c3ccc(F)cc3)[C@@H](c3ccc(Cl)c(F)c3)N21` [Example 25, 7-[(5R)-1-{[(5R,6S)-5-(4-chloro-3-fluorophenyl)-6-(4-fluorophenyl)-3-isopropyl-6-methyl-5,6-dihydroimidazo[2,1-b][1,3]thiazol-2-yl]carbonyl}-5-methyl-L-prolyl]-4,7-diazaspiro[2.5]octane], the remaining at 0.5 h is ≥ 50%.
The value for `CC(C)C1=C(C(=O)N2[C@H](C)CC[C@H]2C(=O)N2CCNC3(CC3)C2)SC2=N[C@@](C)(c3ccc(Cl)nc3)[C@@H](c3ccc(F)c(Cl)c3)N21` [Example 26, 7-[(5R)-1-{[(5R,6S)-5-(3-chloro-4-fluorophenyl)-6-(6-chloropyridin-3-yl)-3-isopropyl-6-methyl-5,6-dihydroimidazo[2,1-b][1,3]thiazol-2-yl]carbonyl}-5-methyl-L-prolyl]-4,7-diazaspiro[2.5]octane] was ≥ 50%; that for `CC(C)C1=C(C(=O)N2[C@H](C)CC[C@H]2C(=O)N2CCNC3(CC3)C2)SC2=N[C@@](C)(c3ccc(Cl)c(N)c3)[C@@H](c3ccc(Cl)c(F)c3)N21` [Example 27, 2-chloro-5-[(5R,6S)-5-(4-chloro-3-fluorophenyl)-2-{[(2S,5R)-2-(4,7-diazaspiro[2.5]oct-7-ylcarbonyl)-5-methylpyrrolidin-1-yl]carbonyl}-3-isopropyl-6-methyl-5,6-dihydroimidazo[2,1-b][1,3]thiazol-6-yl]aniline] was ≥ 50%; that for `CC(C)C1=C(C(=O)N2[C@H](C)CC[C@H]2C(=O)N2CCNC3(CC3)C2)SC2=N[C@@](C)(c3ccc(C#N)cc3)[C@@H](c3ccc(Cl)cc3)N21` [Example 28, 4-[(5R,6S)-5-(4-chlorophenyl)-2-{[(2S,5R)-2-(4,7-diazaspiro[2.5]oct-7-ylcarbonyl)-5-methylpyrrolidin-1-yl]carbonyl}-3-isopropyl-6-methyl-5,6-dihydroimidazo[2,1-b][1,3]thiazol-6-yl]benzonitrile] was ≥ 50%.
The figure for `CC(C)C1=C(C(=O)N2[C@H](C)CC[C@H]2C(=O)N2CCNC3(CC3)C2)SC2=N[C@@](C)(c3ccc(C#N)cc3)[C@@H](c3ccc(Cl)c(F)c3)N21` [Example 30, 4-[(5R,6S)-5-(4-chloro-3-fluorophenyl)-2-{[(2S,5R)-2-(4,7-diazaspiro[2.5]oct-7-ylcarbonyl)-5-methylpyrrolidin-1-yl]carbonyl}-3-isopropyl-6-methyl-5,6-dihydroimidazo[2,1-b][1,3]thiazol-6-yl]benzonitrile] is ≥ 50%.
The figure for `CC(C)C1=C(C(=O)N2[C@H](C)CC[C@H]2C(=O)N2CCNC3(CC3)C2)SC2=N[C@@](C)(c3ccc(Cl)nc3)[C@@H](c3ccc(Cl)c(Cl)c3)N21` [Example 31, 7-[(5R)-1-{[(5R,6S)-6-(6-chloropyridin-3-yl)-5-(3,4-dichlorophenyl)-3-isopropyl-6-methyl-5,6-dihydroimidazo[2,1-b][1,3]thiazol-2-yl]carbonyl}-5-methyl-L-prolyl]-4,7-diazaspiro [2.5] octane] is ≥ 50%; for `CC[C@@H]1CC[C@@H](C(=O)N2CCNC3(CC3)C2)N1C(=O)C1=C(C(C)C)N2C(=N[C@@](C)(c3ccc(Cl)nc3)[C@H]2c2ccc(Cl)c(F)c2)S1` [Example 32, 7-[(5R)-1-{[(5R,6S)-5-(4-chloro-3-fluorophenyl)-6-(6-chloropyridin-3-yl)-3-isopropyl-6-methyl-5,6-dihydroimidazo[2,1-b][1,3]thiazol-2-yl]carbonyl}-5-ethyl-L-prolyl]-4,7-diazaspiro[2.5]octane] it is ≥ 50%; for `CC[C@@H]1CC[C@@H](C(=O)N2CCN(C)C3(CC3)C2)N1C(=O)C1=C(C(C)C)N2C(=N[C@@](C)(c3ccc(Cl)nc3)[C@H]2c2ccc(Cl)c(F)c2)S1` [Example 33, 7-[(5R)-1-{[(5R,6S)-5-(4-chloro-3-fluorophenyl)-6-(6-chloropyridin-3-yl)-3-isopropyl-6-methyl-5,6-dihydroimidazo[2,1-b][1,3]thiazol-2-yl]carbonyl}-5-ethyl-L-prolyl]-4-methyl-4,7-diazaspiro[2.5]octane] it is ≥ 50%.
As for `CC(C)C1=C(C(=O)N2[C@H](CF)CC[C@H]2C(=O)N2CCNC3(CC3)C2)SC2=N[C@@](C)(c3ccc(Cl)cc3)[C@@H](c3ccc(Cl)cc3)N21` [Example 38, 7-[(5S)-1-{[(5R,6S)-5,6-bis(4-chlorophenyl)-3-isopropyl-6-methyl-5,6-dihydroimidazo[2,1-b][1,3]thiazol-2-yl]carbonyl}-5-(fluoromethyl)-L-prolyl]-4,7-diazaspiro[2.5]octane], the remaining at 0.5 h is ≥ 50%.
The figure for `CC(C)C1=C(C(=O)N2[C@H](CF)CC[C@H]2C(=O)N2CCN(C)C3(CC3)C2)SC2=N[C@@](C)(c3ccc(Cl)cc3)[C@@H](c3ccc(Cl)cc3)N21` [Example 39, 7-[(5S)-1-{[(5R,6S)-5,6-bis(4-chlorophenyl)-3-isopropyl-6-methyl-5,6-dihydroimidazo[2,1-b][1,3]thiazol-2-yl]carbonyl}-5-(fluoromethyl)-L-prolyl]-4-methyl-4,7-diazaspiro[2.5]octane] is ≥ 50%; for `CC(C)C1=C(C(=O)N2[C@H](CF)CC[C@H]2C(=O)N2CCNC3(CC3)C2)SC2=N[C@@](C)(c3ccc(Cl)nc3)[C@@H](c3ccc(Cl)c(F)c3)N21` [Example 40, 7-[(5S)-1-{[(5R,6S)-5-(4-chloro-3-fluorophenyl)-6-(6-chloropyridin-3-yl)-3-isopropyl-6-methyl-5,6-dihydroimidazo[2,1-b][1,3]thiazol-2-yl]carbonyl}-5-(fluoromethyl)-L-prolyl]-4,7-diazaspiro[2.5]octane] it is ≥ 50%.
The value for `CC(C)C1=C(C(=O)N2[C@H](CF)CC[C@H]2C(=O)N2CCN(C)C3(CC3)C2)SC2=N[C@@](C)(c3ccc(Cl)nc3)[C@@H](c3ccc(Cl)c(F)c3)N21` [Example 41, 7-[(5S)-1-{[(5R,6S)-5-(4-chloro-3-fluorophenyl)-6-(6-chloropyridin-3-yl)-3-isopropyl-6-methyl-5,6-dihydroimidazo[2,1-b][1,3]thiazol-2-yl]carbonyl}-5-(fluoromethyl)-L-prolyl]-4-methyl-4,7-diazaspiro[2.5]octane] was ≥ 50%; that for `CC(C)C1=C(C(=O)N2C(=O)CC[C@H]2C(=O)N2CCNC3(CC3)C2)SC2=N[C@@](C)(c3ccc(Cl)cc3)[C@@H](c3ccc(Cl)cc3)N21` [Example 42, (5S)-1-{[(5R,6S)-5,6-bis(4-chlorophenyl)-3-isopropyl-6-methyl-5,6-dihydroimidazo[2,1-b][1,3]thiazol-2-yl]carbonyl}-5-(4,7-diazaspiro[2.5]oct-7-ylcarbonyl)pyrrolidin-2-one] was ≥ 50%; that for `CC(C)C1=C(C(=O)N2C(=O)CC[C@H]2C(=O)N2CCNC3(CC3)C2)SC2=N[C@@](C)(c3ccc(Cl)nc3)[C@@H](c3ccc(Cl)c(F)c3)N21` [Example 44, (5S)-1-{[(5R,6S)-5-(4-chloro-3-fluorophenyl)-6-(6-chloropyridin-3-yl)-3-isopropyl-6-methyl-5,6-dihydroimidazo[2,1-b][1,3]thiazol-2-yl]carbonyl}-5-(4,7-diazaspiro[2.5]oct-7-ylcarbonyl)pyrrolidin-2-one] was ≥ 50%.
The figure for `CC(=O)N1CCN(C(=O)[C@@H]2CCC(=O)N2C(=O)C2=C(C(C)C)N3C(=N[C@@](C)(c4ccc(Cl)nc4)[C@H]3c3ccc(Cl)c(F)c3)S2)CC12CC2` [Example 45, (5S)-5-[(4-acetyl-4,7-diazaspiro[2.5]oct-7-yl)carbonyl]-1-{[(5R,6S)-5-(4-chloro-3-fluorophenyl)-6-(6-chloropyridin-3-yl)-3-isopropyl-6-methyl-5,6-dihydroimidazo[2,1-b][1,3]thiazol-2-yl]carbonyl}pyrrolidin-2-one] is ≥ 50%.
